Where two headings read alike, the source gives them in different places.
Test system: TNF-α
Experiment: LPS-induced TNF-α secretion in THP-1 cells, ELISA of culture supernatant
Format: cell-based, human
Settings: for TNF-α level, % of the positive control / TNF-α, % of the positive control level: 100 ng/mL LPS; for inhibition at 10 µM: Homo sapiens, THP-1; for TNF-α treatment value, A: relative to control, 5 μM
Description: 1) Recoveried and expanded THP-1 cells in a T75 culture flask. The growth medium was 10 milliliters of 10% fetal bovine serun/RPMI1640 (already containing 2 mM glutamine)/1% double antibiotics in each flask. Observed the cells under an invert microscope, and, when the cells were in the logarithmic growth phase, started the following drug treatment experiments; 2) Cultured 2*10e5/mL THP-1 cells in a 96-well culture plate with 100 microliters of growth medium (10% fetal bovine serum/RPMI640/1% double antibiotics) per well, and added 100 ng/ml PMA to incubate for 24 hour; 3) Eluted the non-adherent cells once with 300 microliters of fresh growth medium of 10% fetal bovine serum/RPMI1640/1% double antibiotics; 4) Added 200 microliters of growth medium of 10% fetal bovine serum/RPMI1640/1% double antibiotics, with/without test compound, to pre-incubate the cells at 37° C. for 2 hours; 5) Then added 100 ng/mL lipopolysaccharide (LPS) and incubated at 37° C. for 4 hours: 6) Collected 50 microliters of cell culture supernatant for the detection of the levels of related cytokines by enzyme-linked immunoassay, or stored it in a refrigerator at minus 80 degrees Celsius for future detection; 1) Prepared 1× elution buffer for enzyme-linked immunoassay. Prepared it with ultrapure water: 10× elution buffer mother solution=9:1 in volume ratio for use; 2) Prepared the antibody cocktail for enzyme-linked immunoassay. Prepared it with the antibody diluent (provided by Ab221825):antibody 1:antibody 2=18:1:1 in volume ratio for use. Antibody 1 was a TNF-α capture antibody and Antibody 2 was a TNF-α detector antibody. They were all supplied by kit Ab221825; 3) Prepared a series of concentration gradient samples of TNF-α standard with ultrapure water for the plotting of reaction standard curve and determining the linear range of detection signal; 4) Added 50 microliters of cell culture supernatant/standard and 50 microliters of the above antibody cocktail to a 96-well plate used for enzymatic reaction, sealed it with a film, placed it on a horizontal shaker, and incubated at 400 rpm for 1 hour at room temperature to allow the antibody-antigen complex was fully bound and coupled at the bottom of the well plate; 5) Discarded the supernatant, eluted with 350 microliters of 1× elution buffer/well for 3 times. In the last elution, put the well plate upside down on an absorbent paper and sucked and washed it thoroughly; 6) Added 100 microliters of TMB substrate solution (supplied by Ab221825) to each well, placed them on a horizontal shaker and incubated in the dark at room temperature for 5 minutes at a speed of 400 rpm; 7) Added 100 microliters of reaction stop solution (provided by Ab221825), placed on a horizontal shaker and mix at 400 rpm for 1 minute; 8) Detected the absorbance at 450 nm with a microplate reader.

## C=C[C@@]1(C)CC(=O)C2(O)[C@@]3(C)C(O)CCC(C)(C)C3[C@H](OC(=O)CCN(C)C)[C@H](OC(C)=O)[C@@]2(C)O1.Cl (some centres unmarked) [6-[3-(dimethylamino)propionyl]forskolin hydrochloride]
5 μM alone, FIG. 4
  TNF-α level, % of the positive control: 33%
5 μM alone, FIG. 6
  TNF-α, % of the positive control level: 58%
  reduction in TNF-α levels: 42%
5 μM used alone, FIG. 4
  reduction in TNF-α level: 67%
10 μM alone, FIG. 4
  TNF-α level, % of the positive control: 27%
10 μM alone, FIG. 6
  TNF-α, % of the positive control level: 44%
10 μM used alone, FIG. 4
  reduction in TNF-α level (inhibitory effect): 73%
10 μM alone, FIG. 6, read-out: reduction in TNF-α levels (inhibitory effect)
  inhibition at 10 µM: 56%
10 μM, 100 ng/ml LPS 4 hours, FIG. 1, read-out: inhibition of the TNF-α level of the positive control
  inhibition at 10 µM: ~75%
Table 3
  TNF-α treatment value, A: 33%
Table 4
  TNF-α treatment value, A: 58%

Source: patent publication US20220079915A1, “IMMUNOSUPPRESSIVE PHARMACEUTICAL COMPOSITION AND APPLICATION THEREOF” (Shanghai Archeus Biotech Co., Ltd., priority 2018, published 2022)
